Tests used:
trh-1 mutant worms = assay: Size comparison (body volume) after rescue-by-feeding; type: in vivo, C. elegans; details: for restoration of body volume: trh-1 lof animals fed E. coli expressing peptide, in words; for Relative Body Volume: trh-1 mutant animals fed peptide, N2 set as 100%
Description: All animals were maintained on bacterial lawns of OP50 E. coli, at 20° C., on NGM agar plates until the start of experiments. Mutant or control animals were transferred onto lawns of DH5α E. coli expressing either scramble peptide or the rescue peptide-of-interest on NGM plates containing […] AMP and 1 mM IPTG. Animals were reared on the peptide-expressing lawns for at least 48 hours at 20° C. before assaying for rescue of mutant phenotype at the appropriate developmental stage.
The body morphology different of trh-1 mutants was compared to wild-type worms by body volume measurements. Wild-type (N2) and trh-1 animals were synchronized by embryonic starvation following alkaline hypochlorite protocols. Ten gravid hermaphrodites from OP50 E. coli plates were picked into 30 μL drops of alkaline hypochlorite solution (20% sodium hypochlorite, 500 mM KOH). Two drops were placed on either side of an unseeded NGM plate, resulting in 20 animals per plate. Plates were then incubated for 24 hours at 20° C. before L1 larval animals washed with 1 mL M9 (22 mM KH2PO4, 42.25 mM Na2HPO4, 85.5 mM NaCl, 1 mM MgSO4) per unseeded NGM plate. Allow L1 worms to settle into pellet before removing M9 supernatant. Repeat washing step 2 more times. Plate worm pellet onto NGM with […] AMP and 1 mM IPTG plates containing 75 μL peptide lawns.
After at 48 hours at 20° C., animals were recorded using a Basler acA2500-14 uM camera using WormLab software (WormLab 4.1; MBF Bioscience, 2017) for 65 seconds. Worm length, width, and area were calculated within the WormLab software (FIG. 5C-FIG. 5H). As the WormLab worm width metric is an average of cross-sections throughout the length of each worm, this was used to calculate the volume of a worm as a cylinder, with the Volume=π*(0.5*width)^2*length (FIG. 2A-FIG. 2B, FIG. 5A-FIG. 5B).
Two to four plates were recorded per day for at least three days to generate data sets. Control plates of N2 and trh-1 animals raised on the scramble peptide were grown alongside every rescue feeding. Each “worm track” was considered an n=1. Tracks were excluded if (1) worm tracks less than 10 seconds, or (2) worms were further than two standard deviations from the mean metric. Following tests for normality, comparisons were made using either Mann-Whitney tests for direct comparisons between N2 and trh-1 animals reared on OP50, or Kruskal-Wallis non-parametric ANOVAs and Dunn's multiple comparisons tests for animals raised on peptide feeding strains. Comparisons were made for metrics: length (FIG. 5C-FIG. 5D), width (FIG. 5e-FIG. 5F), area (FIG. 5G-FIG. 5H), and volume (FIG. 2A-FIG. 2B, FIG. 5A-FIG. 5B).

C. elegans = assay: Single worm attraction assay (SWAA) of ascarosides; type: in vivo; details: males; in words
Description: The spot retention assay was adapted to allow for better characterization of individual worm behavior and robust interrogation of attraction to small molecules. The attractiveness of 1 μM ascr #8 (FIG. 11A) were compared across multiple strains of C. elegans (the wild-type N2 strain, the high incidence of male him-5 and him-8 strains, and the chemosensory cilia defective osm-3), using the novel behavioral assay, the single worm attraction assay (SWAA) (FIG. 11A). In this assay, individual animals were placed directly into the spot of the ascaroside cue (A) while simultaneously removing any potential of male-male contact. […] Likewise, a vehicle control (V) is also included, to account of any changes in dwell time that are driven by the components of the vehicle. The outer forty wells of a 48-well suspension culture plate (Olympus Plastics, Cat #: 25-103) were seeded with 200 μL of standard NGM agar. To prepare the plates for the assay, they were acclimated to room temperature, at which point each well was seeded with 65 μL of OP50 E. coli. The assay plates were then transferred to a 37° C. incubator with the lid tilted for 4 h to allow the bacterial culture to dry on the agar. Once the bacterial culture dried, the lid was replaced the plate was stored at 20° C. until used in the assay. Fifty to sixty L4 worms were segregated by sex and stored at 20° C. for 5 h to overnight to be assayed as young adults. 0.8 μL of either vehicle control or ascaroside #8 was placed in the center of the well corresponding to that condition within the quadrant being tested, following a random block design (FIG. 11A). A single worm was placed in each of the 10 wells to be assayed, and the plate was transferred to a light source and camera and recorded for 15 m. […] Raw dwell time values were calculated by subtracting the time a worm exited the cue (center of the well in spatial controls), from the time it entered, as in the SRA. This was determined per visit, and the average dwell time was calculated for each animal in the quadrant. Averages of the four-quadrant means were determined per plate, and a minimum of five plates were assayed per strain/condition. The mean raw dwell time across five plates was calculated and used for statistical analyses and graphical display. […] An “attractive visit” was first determined for each plate as any visit greater than two standard deviations above the mean dwell time within the vehicle control for that plate. Any individual visit meeting this threshold was scored as a “1”, and any below was scored a “0”. The percent visits per-worm that were attractive was determined, and the average of each quadrant taken. […] The average percent of attractive visits across five plates was calculated and used for statistical analyses and graphical display.

| Compound | restoration of body volume (trh-1 mutant worms) | Relative Body Volume (trh-1 mutant worms) [%] | male attraction in the SWAA (C. elegans) |
| --- | --- | --- | --- |
| GRELF-NH2 [TRH-1A] | complete restoration of wild-type body volume | ~100 |  |
| ANELF-NH2 [TRH-1B] | complete restoration of wild-type body volume | ~100 |  |
| C[C@H](CCCC/C=C/C(=O)O)O[C@@H]1O[C@@H](C)[C@H](O)C[C@H]1O [ascr #3] |  |  | maintains its ability to attract males in the SWAA |

From US20220380430A1, “Non-Transgenic Functional Rescue of Neuropeptides” (Worcester Polytechnic Institute, priority 2021, published 2022)
